Read-outs that look alike come from different tables or passages of the source.
Assays:
[1] = target: T1, hAC1 (Homo sapiens, UniProt Q08828); experiment: Cyclic AMP accumulation in HEK cells stably expressing AC1, stimulated with A23187 (HTRF); format: cell-based; details: for inhibition at 30 µM: HEK293
T1 construct: expressed in transfected cells
Method: The development and mechanistic characterization of AC1-selective small molecule inhibitors is believed to provide novel non-opioid weapons in the war on chronic pain. We identified our initial hits via screening 10,000 selected compounds from the Life Chemicals collection. The screen was carried out using HEK cells stably expressing AC1 (HEK-AC1) and cyclic AMP accumulation was stimulated using the Ca^2+ ionophore, A23187 to selectively activate AC1. Compounds with potential chemical liabilities and PAINs were removed from further evaluation (Baell and Holloway, J. Med. Chem. 2010, 53, 2719-2740).
(§1) Fresh powders of several robust inhibitors (>90% inhibition) were evaluated in multiple confirmation assays assessing the dose response relationship for inhibiting AC1 and AC8 activity. Confirmation assays used A23817 to selectively stimulate recombinant AC1 or AC8 in the HEK cell background (Cumbay and Watts (2001), J. Pharmacol Exp Ther 297:1201-1399). This approach takes advantage of one unique regulatory property of AC1 for the development of selective inhibitors. Both AC1 and AC8 are robustly activated by Ca^2+/CaM under a variety of conditions, whereas the effects of Ca^2+/CaM on AC3 are modest and conditional requiring activation by G proteins. Previous studies have identified unique Ca^2+/CaM binding domains as one possible site of interaction to achieve AC1 (vs. AC8) selectivity (Masada et al., 2012, Biochemistry 51:7917-7929).
(§2) The primary technology we employed to measure cAMP accumulation was a homogenous time-resolved fluorescence (HTRF) assay, the same technology utilized in the primary screen. […] This could be due to either 1) the chemical scaffolds are exquisitely selective toward the AC family of enzymes or 2) the library has not been screened against a sufficient number of targets. The answer is likely a combination of the two; nonetheless, the lack of biological data to date bodes well for these series and any potential off-target promiscuity.
(§3) Human embryonic kidney (HEK) cells stably expressing AC1, AC8, or AC1 with the MOR were cultured in Dulbecco's Modified Eagle Medium (Life Technologies, Grand Island, N.Y.) supplemented with 5% bovine calf serum (Hyclone, Logan, Utah), 5% fetal clone I (Hyclone), Antibiotic-Antimycotic (Life Technologies), and G418 (Invivogen, San Diego, Calif.) (HEK-AC1), or hygromycin B (Fisher Scientific, Pittsburgh, Pa.) (HEK-AC8), or G418 and puromycin (Sigma-Aldrich) (HEK-AC1/MOR). Chinese hamster ovary (CHO) cells expressing the MOR (CHO-MOR) in the PathHunter® β-Arrestin GPCR assay platform were purchased from DiscoveRx (Freemont, Calif.). Cells were grown in Ham's F12 media supplemented with 1 mM L-glutamine (Thermo Scientific, West Palm Beach, Fla.), 10% fetal bovine serum (Hyclone), 50 U/ml penicillin, 50 μg/ml streptomycin (Life Technologies), G418 and hygromycin B. Cells were grown and frozen as previously described (J. M. Conley, et al., J Vis Exp, e51218 (2014)).
(§4) Cyclic AMP accumulation was measured as previously described (Brust, et al., J. Pharmacol. Exp. Ther. 352, 480-493(2015)). Briefly, cryopreserved cells were thawed, resuspended in optiMEM (Life Technologies), and plated in white, flat bottom, low-volume, tissue culture-treated 384 well plates (PerkinElmer, Shelton, Conn.). Plates with cells were incubated in a 37° C. humidified incubator for 1 h. Inhibitors were added and plates were incubated at room temperature for 30 min followed by the addition of AC stimulants in the presence of 500 μM IBMX. Cells were incubated at room temperature for 1 h and cAMP accumulation was measured using Cisbio's cAMP kit (Cisbio Bioassays, Bedford, Mass.) according to the manufacturer's instructions.

[2] = target: T2, hAC8 (Homo sapiens, UniProt P40145); experiment: Cyclic AMP accumulation in HEK cells stably expressing AC8, stimulated with A23187 (HTRF); format: cell-based; details: for inhibition at 30 µM: HEK293
T2 construct: expressed in transfected cells
Method: as §1, §2, §3, §4

[3] = target: T3, hAC2 (Homo sapiens, UniProt Q08462); experiment: Cyclic AMP accumulation in stable HEK-AC2 cells, stimulated with 100 nM PMA; format: cell-based
T3 construct: expressed in transfected cells
Method: as §4

[4] = target: T4, hAC5 (Homo sapiens, UniProt O95622); experiment: Cyclic AMP accumulation in stable HEK-AC5 cells, stimulated with 300 nM forskolin; format: cell-based; details: % inhibition at 30 μM, 300 nM forskolin-stimulated, negative = potentiated response, n = 2
T4 construct: expressed in transfected cells
Method: as §4

[5] = tested on: AC1-HEK cells
Method: Cell viability assays were conducted with HEK-AC1 cells following plating and compound incubation protocols identical to the procedures described above in “Cyclic AMP assays in cells”. Cell viability was measured as a percentage of vehicle using 2% Triton X-100 (Sigma-Aldrich) as a control. The CellTiter-Glo® Luminescent Cell Viability Assay kit from Promega (Madison, Wis.) was employed to assess cell viability according to the manufacturer's instructions. Luminescence counts were measured using a Synergy 4.

[6] = HEK-AC1 cells, read-out: HEK-AC1 IC50
[7] = HEK-AC8 cells, read-out: HEK-AC8 IC50

T2 sequence (P40145 whole entry): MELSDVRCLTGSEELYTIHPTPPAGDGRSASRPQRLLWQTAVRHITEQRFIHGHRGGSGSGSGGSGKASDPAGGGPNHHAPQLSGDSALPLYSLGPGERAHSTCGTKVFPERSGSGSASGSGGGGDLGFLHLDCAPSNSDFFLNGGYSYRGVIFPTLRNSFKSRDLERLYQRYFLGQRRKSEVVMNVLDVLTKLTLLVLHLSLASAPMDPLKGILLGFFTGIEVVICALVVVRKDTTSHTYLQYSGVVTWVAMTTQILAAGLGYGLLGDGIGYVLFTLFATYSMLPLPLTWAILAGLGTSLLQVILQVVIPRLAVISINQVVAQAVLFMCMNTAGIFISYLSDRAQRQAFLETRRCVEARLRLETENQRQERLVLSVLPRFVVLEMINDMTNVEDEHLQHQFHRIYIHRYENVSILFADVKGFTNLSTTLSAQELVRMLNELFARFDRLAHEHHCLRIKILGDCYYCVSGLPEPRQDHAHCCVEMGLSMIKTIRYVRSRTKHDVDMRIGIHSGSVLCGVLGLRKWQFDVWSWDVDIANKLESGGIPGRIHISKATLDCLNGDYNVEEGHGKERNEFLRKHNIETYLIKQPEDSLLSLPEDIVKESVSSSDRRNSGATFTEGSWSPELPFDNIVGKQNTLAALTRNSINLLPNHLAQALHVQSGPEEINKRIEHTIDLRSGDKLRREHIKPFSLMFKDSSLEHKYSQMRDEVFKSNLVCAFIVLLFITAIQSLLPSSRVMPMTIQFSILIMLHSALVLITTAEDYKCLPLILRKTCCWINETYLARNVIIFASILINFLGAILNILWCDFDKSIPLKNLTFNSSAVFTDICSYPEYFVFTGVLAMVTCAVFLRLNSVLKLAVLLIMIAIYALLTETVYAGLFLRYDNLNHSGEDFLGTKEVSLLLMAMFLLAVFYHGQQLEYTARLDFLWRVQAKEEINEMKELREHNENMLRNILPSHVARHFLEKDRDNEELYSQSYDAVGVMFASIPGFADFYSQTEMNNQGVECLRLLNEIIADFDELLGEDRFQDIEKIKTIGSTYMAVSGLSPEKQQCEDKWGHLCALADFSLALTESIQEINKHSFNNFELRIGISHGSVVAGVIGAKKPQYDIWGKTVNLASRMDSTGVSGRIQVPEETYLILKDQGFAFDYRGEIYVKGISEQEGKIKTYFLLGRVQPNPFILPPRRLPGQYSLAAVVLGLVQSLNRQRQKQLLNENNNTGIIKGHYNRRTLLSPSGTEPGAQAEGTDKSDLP
T1 sequence (Q08828 whole entry): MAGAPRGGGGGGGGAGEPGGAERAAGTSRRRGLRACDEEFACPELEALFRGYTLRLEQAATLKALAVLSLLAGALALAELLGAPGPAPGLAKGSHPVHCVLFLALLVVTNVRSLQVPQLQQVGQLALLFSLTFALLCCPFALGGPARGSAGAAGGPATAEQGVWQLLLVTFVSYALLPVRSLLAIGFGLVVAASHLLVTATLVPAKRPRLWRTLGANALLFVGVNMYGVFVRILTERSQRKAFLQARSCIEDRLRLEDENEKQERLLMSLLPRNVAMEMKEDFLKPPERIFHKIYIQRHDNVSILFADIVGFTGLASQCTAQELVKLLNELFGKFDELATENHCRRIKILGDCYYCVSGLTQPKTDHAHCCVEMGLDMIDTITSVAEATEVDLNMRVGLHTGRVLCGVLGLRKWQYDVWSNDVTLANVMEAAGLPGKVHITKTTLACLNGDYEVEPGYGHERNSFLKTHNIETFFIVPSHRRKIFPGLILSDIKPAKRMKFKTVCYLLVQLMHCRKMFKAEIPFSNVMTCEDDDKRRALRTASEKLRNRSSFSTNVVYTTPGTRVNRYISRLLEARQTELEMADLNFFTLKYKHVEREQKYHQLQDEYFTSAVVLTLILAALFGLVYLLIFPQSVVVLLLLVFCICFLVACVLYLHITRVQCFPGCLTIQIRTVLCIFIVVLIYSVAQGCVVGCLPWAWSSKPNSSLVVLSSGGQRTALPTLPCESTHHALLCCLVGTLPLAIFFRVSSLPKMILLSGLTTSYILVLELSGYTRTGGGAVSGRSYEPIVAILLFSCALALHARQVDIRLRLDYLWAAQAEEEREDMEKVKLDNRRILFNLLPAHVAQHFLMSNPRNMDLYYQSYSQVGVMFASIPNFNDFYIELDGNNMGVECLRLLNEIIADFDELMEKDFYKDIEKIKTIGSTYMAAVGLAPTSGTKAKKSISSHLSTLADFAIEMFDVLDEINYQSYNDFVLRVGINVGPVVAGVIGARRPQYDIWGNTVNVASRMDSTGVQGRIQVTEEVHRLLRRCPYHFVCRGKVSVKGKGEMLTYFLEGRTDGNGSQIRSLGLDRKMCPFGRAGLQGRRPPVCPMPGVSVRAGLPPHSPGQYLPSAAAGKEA
T3 sequence (Q08462 whole entry): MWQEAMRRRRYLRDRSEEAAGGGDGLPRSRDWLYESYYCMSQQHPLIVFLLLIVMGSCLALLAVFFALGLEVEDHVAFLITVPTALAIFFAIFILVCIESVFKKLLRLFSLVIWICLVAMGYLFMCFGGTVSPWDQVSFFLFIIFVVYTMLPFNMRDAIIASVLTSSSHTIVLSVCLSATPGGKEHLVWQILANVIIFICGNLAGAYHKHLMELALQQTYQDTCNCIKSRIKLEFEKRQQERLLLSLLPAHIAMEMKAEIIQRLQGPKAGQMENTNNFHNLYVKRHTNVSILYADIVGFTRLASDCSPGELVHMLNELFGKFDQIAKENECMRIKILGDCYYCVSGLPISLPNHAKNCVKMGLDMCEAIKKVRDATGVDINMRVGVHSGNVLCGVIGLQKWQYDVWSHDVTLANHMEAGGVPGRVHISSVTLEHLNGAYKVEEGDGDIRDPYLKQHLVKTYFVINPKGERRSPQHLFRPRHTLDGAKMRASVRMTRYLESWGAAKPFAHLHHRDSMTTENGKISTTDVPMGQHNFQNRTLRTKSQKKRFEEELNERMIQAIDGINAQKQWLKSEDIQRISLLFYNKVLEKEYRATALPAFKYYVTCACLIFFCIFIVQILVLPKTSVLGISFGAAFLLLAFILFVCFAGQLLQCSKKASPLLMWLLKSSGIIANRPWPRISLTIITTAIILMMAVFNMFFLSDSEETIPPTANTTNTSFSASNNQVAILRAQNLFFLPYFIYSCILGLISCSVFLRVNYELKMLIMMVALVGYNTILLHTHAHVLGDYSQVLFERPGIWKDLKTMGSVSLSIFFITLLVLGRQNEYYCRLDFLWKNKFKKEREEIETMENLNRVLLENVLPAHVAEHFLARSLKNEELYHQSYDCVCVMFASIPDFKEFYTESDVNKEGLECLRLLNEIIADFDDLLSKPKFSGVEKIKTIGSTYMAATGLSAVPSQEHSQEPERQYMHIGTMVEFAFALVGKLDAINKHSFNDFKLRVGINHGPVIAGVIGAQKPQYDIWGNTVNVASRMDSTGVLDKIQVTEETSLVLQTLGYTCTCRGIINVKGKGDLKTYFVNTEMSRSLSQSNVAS
T4 sequence (O95622 whole entry): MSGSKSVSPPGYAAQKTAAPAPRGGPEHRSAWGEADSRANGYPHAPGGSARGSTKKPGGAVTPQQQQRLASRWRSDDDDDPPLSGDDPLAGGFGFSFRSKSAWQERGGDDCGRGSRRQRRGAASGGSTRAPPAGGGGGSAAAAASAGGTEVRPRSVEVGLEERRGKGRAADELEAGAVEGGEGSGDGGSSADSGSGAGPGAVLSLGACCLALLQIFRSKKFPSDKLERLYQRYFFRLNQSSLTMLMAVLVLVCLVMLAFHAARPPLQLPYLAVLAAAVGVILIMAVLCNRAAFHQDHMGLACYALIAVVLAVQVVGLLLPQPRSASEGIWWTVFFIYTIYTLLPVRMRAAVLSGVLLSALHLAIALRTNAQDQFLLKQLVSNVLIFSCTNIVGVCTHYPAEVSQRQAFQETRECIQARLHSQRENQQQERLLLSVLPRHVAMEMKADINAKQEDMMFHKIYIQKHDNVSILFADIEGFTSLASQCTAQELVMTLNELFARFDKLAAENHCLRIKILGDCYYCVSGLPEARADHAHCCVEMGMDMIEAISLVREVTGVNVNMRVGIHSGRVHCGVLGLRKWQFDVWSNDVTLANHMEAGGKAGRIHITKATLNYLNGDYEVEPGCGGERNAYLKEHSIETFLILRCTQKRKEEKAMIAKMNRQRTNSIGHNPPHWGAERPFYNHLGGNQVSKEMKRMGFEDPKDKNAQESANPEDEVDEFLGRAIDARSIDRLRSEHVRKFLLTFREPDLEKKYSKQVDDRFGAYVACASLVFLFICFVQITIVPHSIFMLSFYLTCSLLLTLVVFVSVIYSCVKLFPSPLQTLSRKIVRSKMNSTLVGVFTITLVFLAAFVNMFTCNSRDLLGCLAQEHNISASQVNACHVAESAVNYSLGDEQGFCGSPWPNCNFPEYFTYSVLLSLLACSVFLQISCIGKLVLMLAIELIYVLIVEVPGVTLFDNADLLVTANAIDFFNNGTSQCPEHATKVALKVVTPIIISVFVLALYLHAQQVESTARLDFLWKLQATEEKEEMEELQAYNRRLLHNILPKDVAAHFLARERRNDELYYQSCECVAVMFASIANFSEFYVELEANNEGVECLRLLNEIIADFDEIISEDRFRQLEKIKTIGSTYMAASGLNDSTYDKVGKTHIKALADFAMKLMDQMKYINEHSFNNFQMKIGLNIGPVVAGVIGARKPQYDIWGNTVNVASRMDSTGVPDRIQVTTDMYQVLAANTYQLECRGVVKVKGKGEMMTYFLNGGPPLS

Row | Compound | inhibition at 30 µM ([1]; HEK-AC1 cells) [%] | IC50 [1, 6] [µM] | inhibition at 30 µM ([2]; HEK-AC8 cells) [%] | IC50 [2, 7] [µM] | further results
1 | O=C(Nc1nnc(-c2ccc3c(c2)CCCC3)o1)c1ccc(F)cc1 [AC10056, 4-fluoro-N-(5-(5,6,7,8-tetrahydronaphthalen-2-yl)-1,3,4-oxadiazol-2-yl)benzamide] | 98 ± 1 | 5.9 ± 1 | 74 ± 8 | 22 ± 4 | –
2 | O=C(Nc1nnc(-c2ccc3c(c2)CCCC3)o1)c1cccc(F)c1 [AC10059, 3-fluoro-N-(5-(5,6,7,8-tetrahydronaphthalen-2-yl)-1,3,4-oxadiazol-2-yl)benzamide] | 99 ± 0.4 | 1 ± 0.3 | 90 ± 1 | 4.2 ± 0.2 | –
3 | O=C(Nc1nnc(-c2ccc(F)cc2)o1)c1ccccc1F [AC10060, 2-fluoro-N-(5-(4-fluorophenyl)-1,3,4-oxadiazol-2-yl)benzamide] | 12 ± 4 | – | 13 ± 7 | – | inhibition at 10 µM ([3]; HEK-AC2 cells, 10 μM, (−) = negative inhibition (potentiated response)): 3 ± 6%
4 | O=C(Nc1nnc(-c2ccc3c(c2)CCCC3)o1)c1ccc(Cl)cc1 [AC10061, 4-chloro-N-(5-(5,6,7,8-tetrahydronaphthalen-2-yl)-1,3,4-oxadiazol-2-yl)benzamide] | 99 ± 1 | – | 90 ± 0.4 | – | –
5 | CCc1ccc(C(=O)Nc2nnc(-c3ccc4c(c3)CCCC4)o2)cc1 [AC10062, 4-ethyl-N-(5-(5,6,7,8-tetrahydronaphthalen-2-yl)-1,3,4-oxadiazol-2-yl)benzamide] | 98 ± 1 | 1.2 ± 0.2 | 88 ± 2 | 2 ± 0.4 | –
6 | O=C(Nc1nnc(C2CCCCC2)o1)c1cccc(-c2ccccc2)c1 [AC10063, N-(5-cyclohexyl-1,3,4-oxadiazol-2-yl)-[1,1′-biphenyl]-3-carboxamide] | 99 ± 1 | 1.4 ± 0.2 | 92 ± 1 | 1.4 ± 0.4 | –
7 | O=C(Nc1nnc(-c2ccc(F)cc2)o1)c1cccc(-c2ccccc2)c1 [AC10064, N-(5-(4-fluorophenyl)-1,3,4-oxadiazol-2-yl)-[1,1′-biphenyl]-3-carboxamide] | 98 ± 1 | 2.3 ± 0.4 | 84 ± 3 | 7 ± 1 | –
8 | Cc1cc(C(=O)Nc2nnc(-c3ccc(F)cc3)o2)cc(C(F)(F)F)c1 [AC10065, N-(5-(4-fluorophenyl)-1,3,4-oxadiazol-2-yl)-3-methyl-5-(trifluoromethyl)benzamide] | 99 ± 0.5 | 1.4 ± 0.2 | 89 ± 2 | 4.1 ± 0.4 | –
9 | O=C(Nc1nnc(-c2ccc(F)cc2)o1)c1ccc(-c2ccccc2)cc1 [AC10066, N-(5-(4-fluorophenyl)-1,3,4-oxadiazol-2-yl)-[1,1′-biphenyl]-4-carboxamide] | 97 ± 1 | 2.8 ± 0.6 | 90 ± 10 | 7.5 ± 1 | –
10 | Cc1ccc(C(=O)Nc2nnc(-c3ccc(F)cc3)o2)cc1C(F)(F)F [AC10067, N-(5-(4-fluorophenyl)-1,3,4-oxadiazol-2-yl)-4-methyl-3-(trifluoromethyl)benzamide] | 93 ± 5 | 4.6 ± 2 | 75 ± 12 | 9 ± 5 | –
11 | COc1cc(C(=O)Nc2nnc(-c3ccc(F)cc3)o2)cc(C(F)(F)F)c1 [AC10068, N-(5-(4-fluorophenyl)-1,3,4-oxadiazol-2-yl)-3-methoxy-5-(trifluoromethyl)benzamide] | 97 ± 1 | 5 ± 1 | 80 ± 9 | 6 ± 1 | –
12 | Cc1cc(C(=O)Nc2nnc(C3CCCCC3)o2)cc(C(F)(F)F)c1 [AC10069, N-(5-cyclohexyl-1,3,4-oxadiazol-2-yl)-3-methyl-5-(trifluoromethyl)benzamide] | 96 ± 1 | 9.6 ± 1 | 83 ± 7 | 15 ± 2 | –
13 | COc1cc(C(=O)Nc2nnc(C3CCCCC3)o2)cc(C(F)(F)F)c1 [AC10070, N-(5-cyclohexyl-1,3,4-oxadiazol-2-yl)-3-methoxy-5-(trifluoromethyl)benzamide] | 90 ± 2 | 4.8 ± 1 | 79 ± 11 | 9 ± 1 | –
14 | Cc1ccc(C(=O)Nc2nnc(C3CCCCC3)o2)cc1C(F)(F)F [AC10071, N-(5-cyclohexyl-1,3,4-oxadiazol-2-yl)-4-methyl-3-(trifluoromethyl)benzamide] | 100 ± 1 | 3.7 ± 1 | 83 ± 7 | 7 ± 1 | –
15 | Cc1cc(C(=O)Nc2nnc(-c3ccc4c(c3)CCCC4)o2)cc(C(F)(F)F)c1 [AC10072, 3-methyl-N-(5-(5,6,7,8-tetrahydronaphthalen-2-yl)-1,3,4-oxadiazol-2-yl)-5-(trifluoromethyl)benzamide] | 85 ± 4 | 9.1 ± 3 | 78 ± 13 | 2.4 ± 0.02 | –
16 | Cc1ccc(C(=O)Nc2nnc(-c3ccc4c(c3)CCCC4)o2)cc1C(F)(F)F [AC10073, 4-methyl-N-(5-(5,6,7,8-tetrahydronaphthalen-2-yl)-1,3,4-oxadiazol-2-yl)-3-(trifluoromethyl)benzamide] | 64 ± 8 | 26 ± 11 | 65 ± 12 | 13 ± 2 | –
17 | COc1cc(C(=O)Nc2nnc(-c3ccc4c(c3)CCCC4)o2)cc(C(F)(F)F)c1 [AC10074, 3-methoxy-N-(5-(5,6,7,8-tetrahydronaphthalen-2-yl)-1,3,4-oxadiazol-2-yl)-5-(trifluoromethyl)benzamide] | 85 ± 3 | 9.4 ± 1 | 79 ± 6 | 10 ± 0.4 | –
18 | CC1CC(C)CN(S(=O)(=O)c2ccc(C(=O)Nc3nnc(-c4cccs4)o3)cc2)C1 (stereo not shown) [F0559-0346] | – | – | – | – | Selectivity AC1 vs AC8 ([1]; AC8 IC50/AC1 IC50, in the absence of AC8 IC50, estimate based on IC50 ≥30 μM): 2-fold; hAC1 % Inhib. ([1]; stable HEK cell line, A23187-stimulated cAMP accumulation, n ≥ 3): 99 ± 1%; IC50 ([1]; stable HEK cell line, A23187-stimulated cAMP accumulation, n ≥ 3, read-out: hAC1 IC50): 9.1 ± 2 µM; hAC8 % Inhib. ([2]; % inhibition at 30 μM (negative values indicate a potentiated response)): 74 ± 13%; IC50 ([2]; stable HEK cell line, A23187-stimulated cAMP accumulation, n ≥ 3, read-out: hAC8 IC50): 17 ± 6 µM; hAC2 % Inhib. ([3]; % inhibition at 30 μM, 100 nM PMA-stimulated, negative = potentiated response, n = 2): −6%; hAC5 % Inhib. [4]: 4%; Viability % Vehicle [5]: 118 ± 2 % Vehicle
